Data reported in patent US8637511B2, “Aminopyrimidines useful as kinase inhibitors” (Vertex Pharmaceuticals Incorporated, priority 2005, dated 2014).
“And” between values parts separate entries of the source, which are not always exact repeats. Equal entries are not always repeated. Where two headings read alike, the source gives them in different places.

Legend:
[1] = molecular target: Aurora-1 (Aurora B) (Homo sapiens, UniProt Q96GD4); test: Aurora-1 (Aurora B) inhibition assay (radiometric); type: biochemical; conditions: read-out: Aurora B kinase Ki value
In short: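 Radiometric ^33P incorporation into peptide substrate, with [γ-^33P]-ATP at 800 μM final, in 25 mM HEPES pH 7.5, 10 mM MgCl2, 0.1% BSA, 10% glycerol. Compound preincubated with enzyme for 10 min at 25° C, reaction run 3 h, then captured on phosphocellulose. Ki from initial rates by non-linear regression after background subtraction.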

[2] = molecular target: T1, FLT-3 (Homo sapiens, UniProt P36888); test: FLT-3 inhibition assay, radiometric filter-binding; type: biochemical
T1 sequence (P36888 27-993): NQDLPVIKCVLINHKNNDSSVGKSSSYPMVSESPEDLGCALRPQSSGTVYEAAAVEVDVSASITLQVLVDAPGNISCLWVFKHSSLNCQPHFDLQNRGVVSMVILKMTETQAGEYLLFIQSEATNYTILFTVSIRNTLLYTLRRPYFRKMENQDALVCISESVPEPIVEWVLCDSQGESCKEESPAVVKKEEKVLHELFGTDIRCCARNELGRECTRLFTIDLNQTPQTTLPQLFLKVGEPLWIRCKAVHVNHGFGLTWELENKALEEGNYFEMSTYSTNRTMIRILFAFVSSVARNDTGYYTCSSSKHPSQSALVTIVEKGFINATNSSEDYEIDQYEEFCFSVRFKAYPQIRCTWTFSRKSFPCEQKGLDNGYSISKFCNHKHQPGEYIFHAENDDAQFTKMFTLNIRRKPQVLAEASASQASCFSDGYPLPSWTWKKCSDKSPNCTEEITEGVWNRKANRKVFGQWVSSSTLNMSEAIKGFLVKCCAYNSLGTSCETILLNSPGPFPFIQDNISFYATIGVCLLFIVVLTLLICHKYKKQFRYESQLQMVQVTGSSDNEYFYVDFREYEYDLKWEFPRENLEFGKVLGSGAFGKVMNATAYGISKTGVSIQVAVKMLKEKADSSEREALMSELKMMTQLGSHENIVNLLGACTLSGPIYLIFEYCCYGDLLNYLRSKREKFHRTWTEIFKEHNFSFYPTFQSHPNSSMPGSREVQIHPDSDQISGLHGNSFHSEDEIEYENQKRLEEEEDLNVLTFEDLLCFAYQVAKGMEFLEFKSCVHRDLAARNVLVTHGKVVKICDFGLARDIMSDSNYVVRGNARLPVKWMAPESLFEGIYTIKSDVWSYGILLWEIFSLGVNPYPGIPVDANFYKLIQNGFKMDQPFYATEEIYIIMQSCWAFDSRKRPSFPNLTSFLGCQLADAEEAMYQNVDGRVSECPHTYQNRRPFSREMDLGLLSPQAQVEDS

Sequence of Aurora-1 (Aurora B) (Q96GD4 whole entry): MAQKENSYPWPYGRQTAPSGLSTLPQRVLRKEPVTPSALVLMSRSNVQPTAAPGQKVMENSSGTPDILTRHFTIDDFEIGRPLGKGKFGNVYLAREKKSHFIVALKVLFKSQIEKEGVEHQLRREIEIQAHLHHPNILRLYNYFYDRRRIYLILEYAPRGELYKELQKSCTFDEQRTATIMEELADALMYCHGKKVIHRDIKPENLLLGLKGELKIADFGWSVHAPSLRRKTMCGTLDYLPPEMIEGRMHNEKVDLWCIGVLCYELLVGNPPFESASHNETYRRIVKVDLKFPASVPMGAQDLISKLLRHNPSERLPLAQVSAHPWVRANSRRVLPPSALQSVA

SMILES	Ki [1]	Ki [2] [nM]	Ki ([2]; read-out: FLT-3 Ki value) [nM]
CC(C)(C)c1cc(Nc2cc(N3CCC3)nc(Sc3ccc(NC(=O)c4ccccc4Cl)cc3)n2)n[nH]1 [Compound 69]	50 to 2000 nM	150 to 1000	
Cc1cc(Nc2cc(N3CC(OC(=O)CN(C)C)(C4CC4)C3)nc(Sc3ccc(NC(=O)C4CC4)cc3)n2)n[nH]1 [Compound 119]	≤ 10 nM		≤ 50
Cc1cnc(Nc2cc(N3CC(F)(C4CC4)C3)nc(Oc3ccc(NC(=O)CC(F)(F)F)cc3)n2)s1 [Compound 181]	10 to 50 nM	≤ 50	
Cc1cc(Nc2cc(N3CCC3)nc(Sc3ccc(NC(=O)Cc4ccccc4Cl)cc3)n2)[nH]n1 [Compound 57]	≤ 10 nM		150 to 1000
Cc1cc(Nc2cc(N3CC(O)(C4CC4)C3)nc(Sc3ccc4nc(C(F)(F)F)n(C)c4c3)n2)[nH]n1 [Compound 155]	≤ 10 nM	50 to 150	
Cc1cc(Nc2cc(N3CC(O)(C4CC4)C3)nc(Sc3ccc(NC(=O)C4CC4)c(F)c3)n2)[nH]n1 [Compound 109]	10 to 50 nM		≤ 50
Cc1cc(Nc2cc(N3CC(C)(C#N)C3)nc(Sc3ccc(NC(=O)CC(F)(F)F)cc3)n2)[nH]n1 [Compound 169]	≤ 10 nM	≤ 50	
COCc1cc(Nc2cc(N3CCC3)nc(Sc3ccc(NC(=O)c4ccccc4Cl)cc3)n2)n[nH]1 [Compound 82]	50 to 2000 nM	150 to 1000	
Cc1cc(Nc2cc(N3CC(O)(C4CC4)C3)nc(Sc3ccc4nc(C(F)(F)F)ccc4c3)n2)[nH]n1 [Compound 186]	≤ 10 nM	50 to 150	
CCC(=O)Nc1ccc(Sc2nc(Nc3cc(C)n[nH]3)cc(N3CC(OC(C)(C)C)C3)n2)cc1 [Compound 67]	50 to 2000 nM		50 to 150
Cc1cc(Nc2cc(N3CC(N4CCOCC4)C3)nc(Sc3ccc4nc(CC(F)(F)F)n(C)c4c3)n2)[nH]n1 [Compound 177]	≤ 10 nM	150 to 1000	
Cc1cc(Nc2cc(N3CCC3)nc(Sc3ccc(NC(=O)c4ccc(-c5ccccc5)cc4Cl)cc3)n2)[nH]n1 [Compound 83]	≤ 10 nM		150 to 1000
Cc1cc(Nc2cc(N3CC(F)(C4CC4)C3)nc(Sc3ccc(NC(=O)CN(C)C)cc3)n2)[nH]n1 [Compound 152]	≤ 10 nM	150 to 1000	
Cc1cc(Nc2nc(Sc3ccc(NC(=O)CC(F)(F)F)cc3)nc(N3CC(F)(C4CC4)C3)c2F)[nH]n1 [Compound 178]	10 to 50 nM	150 to 1000	
Cc1cc(Nc2cc(N3CC(OC(C)C)C3)nc(Sc3ccc(NC(=O)c4ccccc4Cl)cc3)n2)n[nH]1 [Compound 38]	≤ 10 nM	150 to 1000	
CCC(=O)Nc1ccc(Sc2nc(Nc3cc(C)n[nH]3)cc(N3CC(N4CCOCC4)C3)n2)cc1 [Compound 68]	50 to 2000 nM		50 to 150
Cc1cc(Nc2cc(N3CC(F)(C4CC4)C3)nc(Sc3ccc(NC(=O)C4(C)CC4)cc3)n2)[nH]n1 [Compound 203]	50 to 2000 nM		150 to 1000
CCC(=O)Nc1ccc(Sc2nc(Nc3cc(C)n[nH]3)cc(N3CC(OC)(C(C)(C)C)C3)n2)cc1 [Compound 90]	≤ 10 nM	≤ 50	

SMILES	Ki [1]	Ki [2] [nM]	Ki ([2]; read-out: FLT-3 Ki value) [nM]
CC(C)=C1CN(c2cc(Nc3cc(C)n[nH]3)nc(Sc3ccc(NC(=O)CC(F)(F)F)cc3)n2)C1 [Compound 184]	10 to 50 nM and < 25 nM	50 to 150	
Cc1cc(Nc2cc(N3CC(F)(C4CC4)C3)nc(Oc3ccc(NC(=O)CC(F)(F)F)cc3)n2)[nH]n1 [Compound 144]	10 to 50 nM and < 25 nM	≤ 50	
Cc1cc(Nc2cc(N3CC(C)(O)C3)nc(Sc3ccc(NC(=O)c4ccccc4Cl)cc3)n2)[nH]n1 [Compound 50]	≤ 10 nM	≤ 50	
CCC(=O)Nc1ccc(Sc2nc(Nc3cc(C)n[nH]3)cc(N3CC(C)(N4CCOCC4)C3)n2)cc1 [Compound 88]	≤ 10 nM	≤ 50	
CCC(=O)Nc1ccc(Sc2nc(Nc3cc(C)n[nH]3)cc(N3CC4(C3)OCC4(C)C)n2)cc1 [Compound 92]	10 to 50 nM		≤ 50
Cc1cc(Nc2cc(N3CC(C)(F)C3)nc(Sc3ccc(NC(=O)CC(F)(F)F)cc3)n2)n[nH]1 [Compound 168, N-(4-(4-(5-methyl-1H-pyrazol-3-ylamino)-6-(3-fluoro-3-methylazetidin-1-yl)pyrimidin-2-ylthio)phenyl)-3,3,3-trifluoropropanamide]	≤ 10 nM	≤ 50	
CCC(=O)Nc1ccc(Sc2nc(Nc3cc(C)n[nH]3)cc(N3CC(C)(N4CCCC4)C3)n2)cc1 [Compound 89]	≤ 10 nM		≤ 50
COC1(C)CN(c2cc(Nc3cc(C)n[nH]3)nc(Sc3ccc(NC(=O)c4ccccc4Cl)cc3)n2)C1 [Compound 51]	≤ 10 nM	50 to 150	
Cc1cc(Nc2cc(N3CC(N4CC[C@H](F)C4)C3)nc(Sc3ccc(NC(=O)CC(F)(F)F)cc3)n2)[nH]n1 [Compound 185]	≤ 10 nM	50 to 150	
Cc1cc(Nc2cc(N3CC(F)(C4CC4)C3)nc(Sc3ccc(NS(C)(=O)=O)cc3)n2)[nH]n1 [Compound 151]	50 to 2000 nM	≤ 50	
Cc1cc(Nc2cc(N3CC(F)(C4CC4)C3)nc(Sc3cnc4ccccc4c3)n2)[nH]n1 [Compound 206]	10 to 50 nM	≤ 50	
Cc1cc(Nc2cc(N3CCC3)nc(Sc3ccc(NC(=O)c4cnccc4C(F)(F)F)cc3)n2)[nH]n1 [Compound 59]	≤ 10 nM	150 to 1000	
Cc1cc(Nc2cc(N3CC(O)(C4CC4)C3)nc(Sc3cc(F)c4nc(C)ccc4c3)n2)[nH]n1 [Compound 172]	≤ 10 nM	50 to 150	
CCOC1CN(c2cc(Nc3cc(C)[nH]n3)nc(Sc3ccc(NC(=O)c4ccccc4Cl)cc3)n2)C1 [Compound 37]	≤ 10 nM	50 to 150	
Cc1cc(Nc2cc(N3CC(C)(C(C)(C)F)C3)nc(Sc3ccc(NC(=O)CC(F)(F)F)cc3)n2)[nH]n1 [Compound 183]	≤ 10 nM	≤ 50	
Cc1cc(Nc2cc(N3CC(N4CCCC4)C3)nc(Sc3ccc(NC(=O)CC(F)(F)F)cc3)n2)[nH]n1 [Compound 204]	≤ 10 nM	50 to 150	
Cc1cc(Nc2cc(N3CC(F)(C4CC4)C3)nc(Sc3ccc(C(=O)NCC(F)(F)F)cc3)n2)[nH]n1 [Compound 205]	10 to 50 nM and < 25 nM	50 to 150	
Cc1cc(Nc2cc(N3CC(N4CCOCC4)C3)nc(Sc3ccc4c(c3)CN(CC(F)(F)F)C4=O)n2)[nH]n1 [Compound 173]	10 to 50 nM and < 25 nM	≤ 50	
